Source: patent publication US20140080824A1, “STRUCTURE-GUIDED IDENTIFICATION OF BINDING INTERACTIONS OF HUMAN LAMININ RECEPTOR PRECURSOR WITH LAMININ AND IDENTIFICATION OF COMPOUNDS THAT AFFECT BINDING” (NEW YORK UNIVERSITY, priority 2010, published 2014)
“Also recorded” adds a separate entry of the source.

How the values were obtained:
[1] = tested on: HT1080 human fibrosarcoma cells; assay: Experimental metastasis of luciferase expressing HT1080 cells in SCID mice; type: in vivo
Description: In addition, LamR has been described to be a critical factor of tumor metastasis. Clinical uses of the LamR inhibitors disclosed herein include their use as anti-metastatic anti-tumor agents. In a manner similar to that observed for the above-described in vitro cellular migration assays, compound LRI-F has such anti-metastatic properties in a murine model of experimental metastasis. […] Tumor cells were imaged via their expression of an exogenous firefly luciferase gene using the IVIS in vivo imaging system (Caliper/Xenogen).
Cells were washed once in PBS and re-suspended to a concentration of 1×10^6 cells/mL in PBS. 0.5 cc of the cell suspension (500,000 cells) was injected intravenously via the tail vein into SCID mice. Tumor implantation was monitored with IVIS Spectrum imaging technology (Caliper LS/Xenogen) following intra-peritoneal injection of luciferin substrate. Briefly, a camera is used to detect bioluminescent signal emitted from luciferase expressing cells. Mice are injected i.p. with 0.3 cc of 15 mg/mL beetle luciferin substrate (Promega) in PBS. Mice are anesthetized with isofluoran (2%)/oxygen mixture prior to imaging 5 minutes post substrate injection. Light is collected over a 1 minute imaging period at high binning to detect lung signal. Living Image Software version 3.0 (Caliper LS) is used to quantify and represent light signal.

HT1080 cells [2] = assay: Growth inhibition of HT1080 cells; type: cell-based, human; conditions: FIG. 9b
Description: FIGS. 9a and 9b—Targeting LamR ribosomal and growth functions with inhibitors. (a) Inhibition of cellular translation in several cell lines by LamR inhibitor LRI-F (MRF/Face) by radiolabeled methionine pulse-chase. CHX, cycloheximide (b) Effects of treating HT1080 cells with LamR inhibitors. Dose dependent growth effects occur. *p-value <0.0001, n=3.
The analog compound LRI-F, an inhibitor of LamR, affected these functions.

[3] = tested on: 3T3, HT1080 and C8161 cell lines; assay: Cellular translation by 35S-methionine pulse-chase radiolabeling; type: cell-based; conditions: 10 μM, FIG. 9a
Experimental: As expected for compounds with these properties, the LamR inhibitors of the invention attenuated the translation process.
To label newly synthesized proteins, cells were pulsed with 20 μCi/mL ^35S-methionine radiolabeled amino acid (PerkinElmer) in standard growth media lacking methionine (MP Biomedicals) for 2 hours at 37° C. Following the pulse, normal growth medium was added for the chase to restore normal conditions for 90 minutes. MPER mammalian protein extraction reagent (Pierce) was used to lyse cells and collect protein. To quantity the amount of newly synthesized protein containing the radioisotope, 20 μg total protein was precipitated with 10% TCA for 20 minutes at 4° C. Precipitant was vacuum filtered and washed on glass microfiber filters (Whatman) using 5% TCA followed by 95% ethanol. Filters were dried under a heat lamp prior to addition of 3 mL scintillation fluid to count radioisotope incorporation by events on a Beckman LS3801 scintillation counter (Beckman). For measuring the effects small molecules had on the translation, cells in culture were pre-treated for 18 hours with 1-10 μM of small molecule prior to pulse/chase. As a control for arresting translation, 50 μg/mL cycloheximide was added 3 hours prior to assessment.

LamR = LamR (Homo sapiens, UniProt P08865); assay: Small-molecule inhibition of recombinant LamR binding to laminin coated surface; conditions: for Reduction of LamR binding to laminin relative to the vehicle control (DMSO alone): purified recombinant LamR pre-incubated with small molecule, dose-dependent (FIG. 8a); for Effect on LamR binding to laminin (in words): purified recombinant LamR, FIG. 8a
Experimental: Compounds that interact with this described pocket, MRT (LRI) and MRF (LRI-F), display the properties of LamR inhibitors and are preferred for use in the methods of the present application. […] Binding was not reduced by several negative control compounds (Negative and DBP).
(§1) Wild type and mutant LamR binding affinity for laminin were tested in vitro. Clear polystyrene ELISA 96-well microplates, pre-coated with murine laminin (NEBiolabs), were blocked for 1 hour at 37° C. with blocking buffer (2% FCS, 1 mg/ml BSA, 0.1% sodium azide in PBS). Wells were incubated with increasing concentrations of purified wild type or mutant LamR for 1 h at 37° C. If a small molecule's effects on laminin binding were to be determined, the small molecule was pre-incubated with purified LamR for 15 minutes at 37° C. prior to addition of the mixture to the pre-coated plate. Each well was washed three times with wash buffer (0.5% Tween in PBS). Penta-His HRP conjugate (1:500) (Qiagen) was incubated for 2 h at RT and wells were washed three times with wash buffer. Substrate solution was added and incubated for approximately 10 minutes before reading the fluorescent absorbance detected at 490 nm on an ELISA plate reader (ELX800, Biotek Instruments, Inc.). Controls for buffer alone and binding of a nonspecific protein, A. fulgidus S2p, were also tested. Experiments were performed in triplicate. A binding curve and Kd were generated for wild type and mutant LamR using Prism software. The Kd was calculated using a one-site binding hyperbola and the equation Y=Bmax×X/(Kd+X). Each group was tested in triplicate and binding affinity was determined by normalizing to background fluorescence.

HT1080 cells [4] = assay: HT1080 cell migration towards 10% FBS; type: cell-based, human
Experimental: In order to understand how this in vitro result translated into the cellular context, the ability of cells to migrate toward growth medium was tested in the presence and absence of the LamR inhibitors of the present invention. Since LamR on the cell surface serves the purpose of binding extracellular matrix laminin and facilitates migration and metastasis, it was expected that as inhibitors of cell surface LamR, the compounds of the present invention would reduce the migratory capability of cells. […] The migration of HT1080 cells was reduced to a level equivalent to the no migration control of no serum (No FBS).
HT1080 cells were tested for their ability to migrate toward normal growth media supplemented with 10% FBS or to 10 μg/mL purified laminin (Invitrogen) using the CytoSelect™ 24-well cell migration assay (8 μm, Colorimetric Format) (Cell Biolabs, Inc.). HT1080 cells were obtained from the American Type Culture Collection (Manassas, Va.). HT1080 cells were maintained in Dulbecco's modified Eagle's medium—[…] with 10% FBS. […] After agitation for 10 min at room temperature in extraction solution, 100 μl of each sample was transferred to an ELISA plate and read at 630 nm. […] Results were plotted using GraphPad Prism software, and statistical significance was calculated using a standard Student's t-test.

laminin = assay: In vitro binding affinity of wild type and mutant LamR for laminin (ELISA on laminin pre-coated plates); design: species or system murine; conditions: immobilized laminin
Experimental: as §1, with “Penta-His HRP conjugate (1:500) (Qiagen) was incubated for 2 h at RT and wells were washed three times with wash buffer.” left out, “Controls for buffer alone and binding of a nonspecific protein, A. fulgidus S2p, were also tested. Experiments were performed in triplicate. A binding curve and Kd were generated for wild type and mutant LamR using Prism software.” left out
In total, 14 mutants were analyzed individually (Table 1, FIG. 1a). […] The purity of the proteins was monitored by SDS ? […] Purified recombinant LamR220 (greater than 95% purity) was incubated in serial dilution on pre-coated laminin plates, and binding was detected by anti-His HRP. […]

For `S=C(Nc1ccc2nc3c4ccccc4c4ccccc4c3nc2c1)N1CCOCC1` [MRF, N-dibenzo[a,c]phenazin-11-yl-4-morpholinecarbothioamide], which “Tumor signal from the lungs” value ([1]; 0.42 mg/20 g injected subcutaneously once 2 hours post-injection of cells, FIG. 10c-d) is on record?
The value was “decreased tumor signal from the lungs”.

What about the “Ability of HT1080 cells to implant into the lungs after intravenous injection” value ([1]; cells pretreated with 10 μM before tail vein injection, SCID mice, FIG. 10a) of the same molecule?
Its value is “marked decrease”.

And the “Survival of mice compared to cells pretreated with DMSO vehicle” value ([1]; cells pretreated with 10 μM, FIG. 10b)?
Its value is “prolonged survival”.

And the “Growth effect in HT1080 cells” value (HT1080 cells [2])?
Its value is “growth inhibitory effects in HT1080 cells in a dose-dependent manner”.

What about the “Translation of newly synthesized proteins relative to untreated control” value [3] of the same molecule?
Its value is “dramatic reduction”.

What about the “Reduction of LamR binding to laminin relative to the vehicle control (DMSO alone)” value (LamR) of the same molecule?
Its value is “approximately 50%”.

What about the “Effect on LamR binding to laminin (in words)” value (shortened to “Effect on LamR binding”) (LamR) of the same molecule?
Its value is “block recombinant LamR binding to purified laminin coated surface”.

For `c1ccc2nc3c4ccccc4c4ccccc4c3nc2c1` [DBP, dibenzophenazine, reference compound], which “Effect on LamR binding” value (LamR) is on record?
The value was “not reduced”.

How did the “Migration of HT1080 cells to 10% serum after small molecule treatment” value (HT1080 cells [4]; cells pre-treated 2 hours with 5-10 μM small molecule, CHX 50 μg/mL 3 hours, FIG. 8b) turn out when `C[C@@H]1C[C@@H]([C@H](O)CC2CC(=O)NC(=O)C2)C(=O)[C@@H](C)C1` [CHX, cycloheximide, reference compound] was run?
Its value is “did not result in loss of migratory ability”.

With `O=C(NCCO)c1ccc2nc3c4ccccc4c4ccccc4c3nc2c1` [MRT, N-(2-hydroxyethyl)dibenzo[a,c]phenazine-11-carboxamide] as the molecule, how does the “Reduction of LamR binding to laminin relative to the vehicle control (DMSO alone)” value (LamR) read?
The value was “approximately 50%”.

And the “Effect on LamR binding” value (LamR)?
Its value is “block recombinant LamR binding to purified laminin coated surface”.

B1: A. fulgidus S2p: Archaeoglobus fulgidus S2 ribosomal protein, non-laminin binding ortholog of LamR (protein, UniProt O29132 1-197, looked up)
Small ribosomal subunit …: MMEKEYEYLVPPDDYLAAGVHIGTQIKTGDMKKFIFKVRQDGLYVLDIRKLDERIRVAAKFLSRYEPSKILLVAARQYAHKPVQMFSKVVGSDYIVGRFIPGTLTNPMLSEYREPEVVFVNDPAIDKQAVSEATAVGIPVVALCDSNNSSADVDLVIPTNNKGRRALAIVYWLLAREIAKIRGQDFTYSIEDFEAEL
What does the source list for B1?
Laminin binding activity (in words) (laminin): does not exhibit laminin-binding activity; also recorded: no binding; Inhibition of cell migration towards 10% FBS by recombinant protein (HT1080 cells [4]; recombinant protein 1 μM in lower reservoir, FIG. 3b): not inhibited
